{"source": "paper PMC4266366", "about": "(Medical Science Monitor : International Medical Journal of …, 2014)", "test_system": "BACE expression in transfected INR-32 human neuroblastoma cells", "assay": "Selection of BACE1 siRNAs: inhibition of BACE expression in transfected cells", "type": "cell-based", "conditions": "BACE1 siRNA (75 pmoles) with Oligofectamin reagent", "data": [{"substance": "siRNA A5 3: siRNA A5 3 - 3′GCAAGGAGUACAACUAUGAUU 5′, 3′GGAGGGAGCAUGAUCAUUGUU5′ (chemistry not given here)", "values": [{"measurement": "inhibition of BACE expression", "result": 86.5, "unit": "%"}]}]}
